{"source": "patent US20190048052A1", "about": "“ANTI-MICROBIAL PEPTIDES AND COATINGS” (Board of Regents of the University of Nebraska, priority 2016, published 2019)", "key": {"S. aureus USA300 [1]": {"tested_on": "S. aureus USA300", "experiment": "Propidium iodide membrane permeation", "type": "cell-based, Staphylococcus aureus", "method": "Fluorescence spectroscopy was also used to follow bacterial killing. In brief, a serially diluted 10× peptide (10 μL) was made in 96-well coming COSTAR microtiter plates. Propidium iodide (2 μL) was added at 50 μM to each well which was finally incubated with S. aureus USA300 bacteria (88 μL at a final OD600 ˜0.1) with continuous shaking at 100 rpm, 37° C. in a FLUOstar® Omega (BMG LABTECH Inc, NC) microplate reader. The plates were read every 5 minutes for a total duration of 2 hours with excitation and emission wavelengths at 584 nm and 620 nm respectively. Plots were made using averaged readings from duplicated experiments after subtraction of the media control."}, "S. aureus USA300 [2]": {"tested_on": "S. aureus USA300", "type": "cell-based, Staphylococcus aureus", "details": "for loss in activity compared to the WT: MRSA USA300", "method": "(§1) The antimicrobial activity of peptides was evaluated using a standard broth microdilution protocol. In brief, exponential phase bacteria at 10^6 CFU were incubated with serially diluted peptides overnight for ˜20 hours at 37° C. The plates were read on a ChroMate® 4300 Microplate Reader at 630 nm (GMI, Ramsey, Minn.)."}, "human red blood cells": {"tested_on": "human red blood cells", "experiment": "Hemolytic ability (Example 3)", "type": "cell-based", "details": "concentration that causes 50% hemolysis", "method": "Hemolytic analysis of selected peptides was performed using an established protocol. Briefly, human blood cells (UNMC Blood Bank) were washed three times with phosphate buffer saline (PBS) and diluted to a 2% solution. After peptide treatment, incubation at 37° C. for one hour, and centrifugation at 13,000 rpm, aliquots of the supernatant were transferred to a fresh 96-well microplate. To assess peptide cytotoxicity, the amount of hemoglobin released was measured at 545 nm. The percent lysis was calculated by assuming 100% release when human blood cells were treated with 1% TRITON™ X-100, and 0% release when incubated with PBS buffer."}, "E. coli ATCC 25922": {"tested_on": "E. coli ATCC 25922", "type": "cell-based, Escherichia coli", "details": "ATCC 25922, 20 h", "method": "as §1"}, "S. aureus USA300 [3]": {"tested_on": "S. aureus USA300", "type": "cell-based, Staphylococcus aureus", "method": "Two types of experiments were conducted to evaluate the anti-biofilm activity of these peptides against S. aureus USA300 grown under a static condition for 24 hours to form established biofilms in presence of tryptic soy broth (TSB). The experiment was set up using a flat bottom, 96-well, polystyrene microtiter plates (Corning, COSTAR). In short, S. aureus USA300 (10^5 CFU/mL) in fresh TSB media was made from an exponentially growing culture. 200 μL of this bacterial culture was added to each well of the microtiter plates. The plates are then incubated at 37° C. for 24 hours to allow biofilm formation. Media was then carefully removed followed by washing with sterile 1×PBS to remove any unattached bacteria. Solution containing μL of 10× peptide solution and 180 μL of fresh TSB were added. The plates were again incubated at 37° C. for another 24 hours. To measure the extent of biofilm disruption by the peptides as a function of biofilm reduction, crystal violet staining was performed. Media was pipetted out and the wells were carefully washed with 200 μL of PBS to remove the loosely attached cells. Subsequently, 200 μL of 99% methanol was added for fixation and the plates were allowed to sit for 15 minutes. The plates were finally aspirated and dried. Lastly, staining was done with 200 μL of 1% crystal violet in water for 5 minutes. Excess stain was gently rinsed off with tap water, and plates were air-dried. Further, stains were solubilized in 200 μL of 33% glacial acetic acid followed by colorimetric measurement at 600 nm on a Chromate® microtiter plate reader. The amounts of biofilm growth with and without compound treatments were calculated.\nIn addition, live cell contents of the peptide acted biofilms was estimated by XTT [2,3-bis(2-methyloxy-4-nitro-5-sulfophenyl)-2H-tertazolium-5-carboxanilide]assay by following the manufacturer's instructions with modifications. A 10% XTT solution in TSB media was added to each well and the plates were again incubated for 2 hours at 37° C. Absorbance at 450 nm (only media with XTT containing wells served as the blank) was obtained using Chromate® microtiter plate reader. Percentage of biofilm reduction for the peptide was plotted assuming 100% biofilm growth is achieved on the bacterial wells without peptide treatment."}, "S. aureus USA300 [4]": {"tested_on": "S. aureus USA300", "type": "cell-based, Staphylococcus aureus", "method": "(§2) The bacterial strains used here included Gram-positive bacteria Staphylococcus aureus USA300 LAC, Staphylococcus epidermidis 1457, Bacillus subtilis 168, and Gram-negative Escherichia coli K12. Clinical strains of S. aureus, including Mu50, UAMS-1 and Newman, were also evaluated.\n(§3) The antimicrobial activity of peptides was evaluated using a standard broth microdilution protocol (Wang, G. (2008) J. Biol. Chem., 283:32637-32643). In brief, exponential phase bacteria at 10^6 CFU were incubated with serially diluted peptides overnight for ˜20 hours at 37° C. The plates were read on a ChroMate® 4300 Microplate Reader at 630 nm (GMI, Ramsey, Minn.). […] In addition, the effects of human serum (up to 10%), pH (6.8, 7.4 and 8.0) and 150 mM sodium chloride (NaCl) on MICs against S. aureus USA300 were also evaluated (Mishra et al. (2015) RSC Advances 5:59758-59769).", "remark": "listed apart in the source"}, "S. aureus USA300 [5]": {"tested_on": "S. aureus USA300", "type": "cell-based, Staphylococcus aureus", "details": "USA300", "method": "The minimal bactericidal concentration (MBC) was determined by plating 50 μl of the content in the clear wells of the above MIC assays. MBC was determined on the petri dishes without bacterial colony formation after overnight growth (Wang et al. (2012) Biochemistry 51:653-664)."}, "S. epidermidis 1457": {"tested_on": "S. epidermidis 1457", "type": "cell-based, Staphylococcus epidermidis", "method": "as §2, §3"}, "E. coli K12": {"tested_on": "E. coli K12", "type": "cell-based, Escherichia coli", "details": "K12", "method": "as §2, §3"}, "B. subtilis 168": {"tested_on": "B. subtilis 168", "type": "cell-based, Bacillus subtilis", "method": "as §2, §3"}}, "note": "Like-named read-outs stand apart in the source and are kept apart here. Residues, ends and D or L forms follow the SMILES beside them.", "data": [{"smiles": "CCCCCCCCCC(=O)N[C@@H](Cc1c[nH]c2ccccc12)C(=O)N[C@H](CC(N)=O)C(=O)N[C@@H](CC(=O)O)C(=O)N[C@@H]1C(=O)NCC(=O)N[C@@H](CCCN)C(=O)N[C@@H](CC(=O)O)C(=O)N[C@H](C)C(=O)N[C@@H](CC(=O)O)C(=O)NCC(=O)N[C@H](CO)C(=O)N[C@@H]([C@H](C)CC(=O)O)C(=O)N[C@@H](CC(=O)c2ccccc2N)C(=O)O[C@@H]1C", "note": "[daptomycin, reference compound]", "values": [{"measurement": "propidium iodide fluorescence change after treatment", "setting": "S. aureus USA300 [1]", "value": "rapid increase in fluorescence"}]}, {"smiles": "CN[C@H](CC(C)C)C(=O)N[C@H]1C(=O)N[C@@H](CC(N)=O)C(=O)N[C@H]2C(=O)N[C@H]3C(=O)N[C@H](C(=O)N[C@H](C(=O)O)c4cc(O)cc(O)c4-c4cc3ccc4O)[C@H](O)c3ccc(c(Cl)c3)Oc3cc2cc(c3O[C@@H]2O[C@H](CO)[C@@H](O)[C@H](O)[C@H]2O[C@H]2C[C@](C)(N)[C@H](O)[C@H](C)O2)Oc2ccc(cc2Cl)[C@H]1O", "note": "[vancomycin, reference compound]", "values": [{"measurement": "propidium iodide fluorescence change after treatment", "setting": "S. aureus USA300 [1]", "value": "no increase in fluorescence"}]}, {"smiles": "CC[C@H](C)[C@H](NC(=O)[C@H](CCCNC(=N)N)NC(=O)[C@H](CCCNC(=N)N)NC(=O)[C@H](CC(C)C)NC(=O)[C@H](CCCNC(=N)N)NC(=O)[C@H](Cc1c[nH]c2ccccc12)NC(=O)[C@@H](N)Cc1c[nH]c2ccccc12)C(=O)N[C@@H](Cc1c[nH]c2ccccc12)C(N)=O", "note": "[Peptide W3R, WWRLRRIW] (H-WWRLRRIW-NH2; N-terminus assumed)", "values": [{"measurement": "loss in activity compared to the WT", "setting": "S. aureus USA300 [2]", "value": "four-fold"}, {"measurement": "S. aureus (MIC)", "setting": "S. aureus USA300 [2]; S. aureus USA300", "value": 12.5, "unit": "µM"}, {"measurement": "HL50", "setting": "human red blood cells", "value": ">200", "unit": "µM"}, {"measurement": "E. coli (MIC)", "setting": "E. coli ATCC 25922", "value": 25, "unit": "µM"}, {"measurement": "killing in preformed biofilms (XTT)", "setting": "S. aureus USA300 [3]; 25 μM", "value": "neither W1R nor W3R was able to kill"}]}, {"smiles": "CC[C@H](C)[C@H](NC(=O)[C@H](CCCNC(=N)N)NC(=O)[C@H](CCCNC(=N)N)NC(=O)[C@H](CC(C)C)NC(=O)[C@H](Cc1c[nH]c2ccccc12)NC(=O)[C@H](Cc1c[nH]c2ccccc12)NC(=O)[C@@H](N)Cc1c[nH]c2ccccc12)C(=O)N[C@@H](CCCNC(=N)N)C(N)=O", "note": "[Peptide W8R, WWWLRRIR] (H-WWWLRRIR-NH2; N-terminus assumed)", "values": [{"measurement": "loss in activity compared to the WT", "setting": "S. aureus USA300 [2]", "value": "four-fold"}, {"measurement": "S. aureus (MIC)", "setting": "S. aureus USA300 [2]; S. aureus USA300", "value": 12.5, "unit": "µM"}, {"measurement": "HL50", "setting": "human red blood cells", "value": ">200", "unit": "µM"}, {"measurement": "E. coli (MIC)", "setting": "E. coli ATCC 25922", "value": 25, "unit": "µM"}, {"measurement": "killing in preformed biofilms (XTT)", "setting": "S. aureus USA300 [3]; 12.5 μM", "value": 20, "unit": "%"}]}, {"smiles": "CC[C@H](C)[C@H](NC(=O)[C@H](CCCNC(=N)N)NC(=O)[C@H](CCCNC(=N)N)NC(=O)[C@H](CC(C)C)NC(=O)[C@H](Cc1c[nH]c2ccccc12)NC(=O)[C@H](Cc1c[nH]c2ccccc12)NC(=O)[C@@H](N)CCCNC(=N)N)C(=O)N[C@@H](Cc1c[nH]c2ccccc12)C(N)=O", "note": "[Peptide W1R, RWWLRRIW] (H-RWWLRRIW-NH2; N-terminus assumed)", "values": [{"measurement": "loss in activity compared to the WT", "setting": "S. aureus USA300 [2]", "value": "four-fold"}, {"measurement": "S. aureus (MIC)", "setting": "S. aureus USA300 [2]; S. aureus USA300", "value": 12.5, "unit": "µM"}, {"measurement": "HL50", "setting": "human red blood cells", "value": ">200", "unit": "µM"}, {"measurement": "E. coli (MIC)", "setting": "E. coli ATCC 25922", "value": 25, "unit": "µM"}, {"measurement": "killing in preformed biofilms (XTT)", "setting": "S. aureus USA300 [3]; 25 μM", "value": "neither W1R nor W3R was able to kill"}]}, {"smiles": "CC[C@H](C)[C@H](NC(=O)[C@H](CCCNC(=N)N)NC(=O)[C@H](CCCNC(=N)N)NC(=O)[C@H](CC(C)C)NC(=O)[C@H](Cc1c[nH]c2ccccc12)NC(=O)[C@H](CCCNC(=N)N)NC(=O)[C@@H](N)Cc1c[nH]c2ccccc12)C(=O)N[C@@H](Cc1c[nH]c2ccccc12)C(N)=O", "note": "[Peptide W2R, WRWLRRIW] (H-WRWLRRIW-NH2; N-terminus assumed)", "values": [{"measurement": "S. aureus (MIC)", "setting": "S. aureus USA300 [2]; USA300, 20 h", "value": 6.2, "unit": "µM"}, {"measurement": "HL50", "setting": "human red blood cells", "value": 100, "unit": "µM"}, {"measurement": "E. coli (MIC)", "setting": "E. coli ATCC 25922", "value": 25, "unit": "µM"}, {"measurement": "killing in preformed biofilms (XTT)", "setting": "S. aureus USA300 [3]; 12.5 μM", "value": 80, "unit": "%"}]}, {"smiles": "CC[C@H](C)[C@H](NC(=O)[C@H](CCCNC(=N)N)NC(=O)[C@H](CO)NC(=O)[C@H](CC(C)C)NC(=O)[C@H](Cc1c[nH]c2ccccc12)NC(=O)[C@H](Cc1c[nH]c2ccccc12)NC(=O)[C@@H](N)Cc1c[nH]c2ccccc12)C(=O)N[C@@H](Cc1c[nH]c2ccccc12)C(N)=O", "note": "[TetraF2W, WWWLSRIW] (H-WWWLSRIW-NH2; N-terminus and C-terminus assumed)", "values": [{"measurement": "fold more potent than temporin-SHf (anti-MRSA)", "setting": "S. aureus USA300 [4]; S. aureus USA300", "value": "4-8 fold"}, {"measurement": "MIC S. aureus USA300", "setting": "S. aureus USA300 [4]; USA300", "value": "3.1 to 6.2", "unit": "µM"}, {"measurement": "MBC S. aureus USA300", "setting": "S. aureus USA300 [5]", "value": 6.2, "unit": "µM"}, {"measurement": "MIC S. epidermidis 1457", "setting": "S. epidermidis 1457", "value": ">50", "unit": "µM"}, {"measurement": "MIC E. coli K12", "setting": "E. coli K12", "value": ">100", "unit": "µM"}, {"measurement": "MIC B. subtilis 168", "setting": "B. subtilis 168", "value": 6.2, "unit": "µM"}]}]}
